In patent EP0539170A1, “Benzodiazepine derivatives and their use as antagonists of cholecystokinin and/or gastrin receptors” (priority 1991, dated 1993) one finds IC50 data, which are given here for 12 compounds.

For orientation: IC50 means the midpoint of a concentration-inhibition curve.

SMILES strings stand for the structures. Some results are limits rather than exact numbers.

The target in the experiment is T1, CCK Receptor (Pancreas) (Rattus norvegicus, UniProt P30551).
T1 construct: The whole pancreas was dissected free of fat tissue and was homogenized; from tissue; host or cells: rat pancreas membrane homogenate
T1 sequence (P30551 1-444): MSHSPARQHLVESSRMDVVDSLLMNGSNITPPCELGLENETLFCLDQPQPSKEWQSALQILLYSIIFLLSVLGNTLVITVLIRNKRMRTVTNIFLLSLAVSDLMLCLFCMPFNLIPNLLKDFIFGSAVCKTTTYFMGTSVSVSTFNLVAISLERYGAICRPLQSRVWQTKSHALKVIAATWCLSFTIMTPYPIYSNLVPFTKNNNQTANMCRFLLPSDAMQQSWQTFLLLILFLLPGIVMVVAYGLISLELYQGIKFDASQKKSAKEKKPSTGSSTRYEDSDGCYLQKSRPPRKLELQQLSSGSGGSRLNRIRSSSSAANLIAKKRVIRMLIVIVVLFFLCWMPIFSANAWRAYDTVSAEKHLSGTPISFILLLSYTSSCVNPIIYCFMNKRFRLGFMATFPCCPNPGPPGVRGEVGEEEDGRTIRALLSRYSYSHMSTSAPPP
Nature of the experiment: CCK Receptor Binding (Pancreas), inhibition of specific 125I-CCK-8 binding. Further details: species or system Sprague-Dawley rats. The following applies: rat whole pancreas membranes; 50 pM 125I-CCK-8; 25°C for 2 hours. The protocol:
CCK-8 sulphated was radiolabelled with ¹²⁵I-Bolton Hunter reagent (2000 Ci/mmole). Receptor binding was performed according to Chang and Lotti (Proc. Natl. Acad. Sci. 83, 4923-4926, 1986) with minor modifications.
Male Sprague-Dawley rats (150-200g) were sacrificed by decapitation. The whole pancreas was dissected free of fat tissue and was homogenized in 25 volumes of ice-cold 10 mM N-2-hydroxyethyl-piperazine-N′-2-ethane sulphonic acid (HEPES) buffer with 0.1% soya bean trypsin inhibitor (pH 7.4 at 25°C) with a Kinematica Polytron. The homogenates were centrifuged at 47,800 g for 10 min. Pellets were resuspended in 10 volumes of binding assay buffer (20mM (HEPES)), 1mM ethylene glycol-bis-(β-aminoethylether-N,N′-tetraacetic acid) (EGTA), 5mM MgCl₂, 150 mM NaCl, bacitracin 0.25 mg/ml, soya bean trypsin inhibitor 0.1 mg/ml, and bovine serum albumin 2 mg/ml pH 6.5 at 25°C) using a Teflon (trademark) homogenizer, 15 strokes at 500 rpm. The homogenate was further diluted in binding assay buffer to give a final concentration of 0.5 mg original wet weight/1 ml buffer. […] All assays were run in duplicate. The reaction mixtures were incubated at 25°C for 2 hours and the reaction terminated by rapid filtration (Brandell 24 well cell harvester) over Whatman GF/C filters, washing 3 x 4 mls with ice-cold 100 Mm NaCl. The radioactivity on the filters was counted with a LKB gamma counter.
Drug displacement studies were performed with at least 10 concentrations of compounds of Formula I and the IC₅₀ values were determined by regression analysis IC₅₀ refers to the concentration of the compound required to inhibit 50% of specific binding of ¹²⁵I-CCK-8.
As for `CN1CCN(C2=NC(NC(=O)Nc3ccccc3)C(=O)N(C)c3ccccc32)CC1` (racemic) [Example 31, N-[3(R,S)-2,3-Dihydro-1-methyl-2-oxo-5-(4-methylpiperazin-1-yl)-1H-1,4-benzodiazepin-3-yl]-N′-phenyl urea], the IC50 was found to be 3450 nM.
To `CCCN1C(=O)C(NC(=O)Nc2ccc3c(c2)CCC3)N=C(N2CCN(C)CC2)c2ccccc21` (racemic) [Example 33, N-[3(R,S)-2,3-Dihydro-5-(4-methylpiperazin-1-yl)-2-oxo-1-propyl-1H-1,4-benzodiazepin-3-yl]-N′-[5-indanyl] urea] belongs > 3000 nM; to `CCCN1C(=O)C(NC(=O)Nc2cccc(C)c2)N=C(N2CCNCC2)c2ccccc21` (racemic) [Example 36, N-[3(R,S)-2,3-Dihydro-2-oxo-5-(piperazin-1-yl)-1-propyl-1H-1,4-benzodiazepin-3-yl]-N′-[3-methylphenyl] urea], > 3000 nM; to `CCCN1C(=O)C(NC(=O)Nc2cccc(C)c2)N=C(N2CCN(CC)CC2)c2ccccc21` (racemic) [Example 37, N-[3(R,S)-2,3-Dihydro-5-(4-ethylpiperazin-1-yl)-2-oxo-1-propyl-1H-1,4-benzodiazepin-3-yl]-N#MIN#-[3-methylphenyl] urea], 3730 nM.
The figure for `CCCN1C(=O)C(NC(=O)Nc2cccc(C)c2)N=C(N2CCN(C)CC2)c2cc(C)ccc21` (racemic) [Example 38, N-(3(R,S)-2,3-Dihydro-7-methyl-5-(4-methylpiperazin-1-yl)-2-oxo-1-propyl-1H-1,4-benzodiazepin-3-yl]-N′-[3-methylphenyl]urea] is 1600 nM.
To `CCCN1C(=O)C(NC(=O)Nc2cccc(NC(C)=O)c2)N=C(N2CCN(C)CC2)c2ccccc21` (racemic) [Example 39, N-[3(R,S)-2,3-Dihydro-5-(4-methylpiperazin-1-yl)-2-oxo-1-propyl-1H-1,4-benzodiazepin-3-yl]-N#MIN#-[3-(acetylamino)phenyl] urea] belongs > 3000 nM.
`CCCN1C(=O)C(NC(=O)Nc2cccc(C)c2)N=C(N2CCN(C)CC2)c2ccc(C)cc21` (racemic) [Example 42, N-[3(R,S)-2,3-Dihydro-8-methyl-5-(4-methylpiperazin-1-yl)-2-oxo-1-propyl-1H-1,4-benzodiazepin-3-yl]-N′-[3-methylphenyl] urea] returned a 50% inhibitory concentration (IC50) of 711 nM. This counts as sub-micromolar.
To `Cc1cccc(NC(=O)NC2N=C(N3CCCCCCC3)c3ccccc3N(C)C2=O)c1` (racemic) [Example 43, N-[3(R,S)-2,3-Dihydro-5-(heptamethyleneimin-1-yl)-1-methyl-2-oxo-1H-1,4-benzodiazepin-3-yl]-N#MIN#-[3-methylphenyl] urea] belongs 18.4 nM; to `CCCN1C(=O)C(NC(=O)Nc2cccc(C)c2)N=C(N2CCCCC2)c2ccccc21` (racemic) [Example 44, N-[3(R,S)-2,3-Dihydro-2-oxo-5-(piperidin-1-yl)-1-propyl-1H-1,4-benzodiazepin-3-yl]-N′-[3-methylphenyl] urea], 120 nM.
To `CCCN1C(=O)C(NC(=O)Nc2cccc(C)c2)N=C(N2CCN(C)CC2)c2ccc(N(C)C)cc21` (racemic) [Example 45, N-[3(R,S)-2,3-Dihydro-8-dimethylamino-5-(4-methylpiperazin-1-yl)-2-oxo-1-propyl-1H-1,4-benzodiazepin-3-yl]-N′-[3-methylphenyl] urea] belongs 956 nM; to `CN1C(=O)C(NC(=O)Nc2ccc3c(c2)CCC3)N=C(N2CCCCCC2)c2ccccc21` (racemic) [Example 46, N-[3(R,S)-2,3-Dihydro-5-(homopiperidin-1-yl)-1-methyl-2-oxo-1H-1,4-benzodiazepin-3-yl]-N′-[5-indanyl] urea], 28.2 nM.
For the compound `CCCN1C(=O)C(NC(=O)Nc2cccc(C)c2)N=C(N2CCCCCC2)c2ccccc21` (racemic) [Example 47, N-[3(R,S)-2,3-Dihydro-5-(homopiperidin-1-yl)-2-oxo-1-propyl-1H-1,4-benzodiazepin-3-yl]-N′-[3-methylphenyl] urea], the IC50 worked out at 23.4 nM. The IC50 values of the last two compounds are within 1.5-fold of each other.
